{"source": "patent US9452226B2", "about": "“Rodent model of central neuropathic pain caused by dorsal root entry zone avulsion at T13” (priority 2008, dated 2016)", "key": {"[1]": {"system": "rats with unilateral T13/L1 dorsal root avulsion", "experiment": "von Frey test after unilateral T13/L1 dorsal root avulsion, daily s.c. AV411 (Example 5)", "format": "in vivo, rat", "description": "The dorsal spinal cord was exposed by laminectomy at the T13/L1 spinal level. The T13 and L1 dorsal roots were each isolated, clamped at the dorsal root entry zone (DREZ) and briskly pulled out of the spinal cord as described above. AV411 was administered to animals avulsed at the T13 and L1 dorsal root entry zones. The compound AV411 was administered to animals subject to the T13 and L1 hind paws. […] The reversal begins after 5-6 injections and continues to reverse behavior until day 33. The contralateral paw began to resolve at day 28 and the ipsilateral paw was still sensitive at day 33. […] Response thresholds on the von Frey test were recorded prior to and across a timecourse after avulsion surgery. Beginning on Day 12 post-surgery, rats (n=4/group) received once daily s.c. injections of either the glial activation inhibitor AV411/Ibudilast (Sigma; 5-mg/kg or 10-mg/kg) or equivolume vehicle (corn oil; 0.5-ml/kg). Daily drug treatment and intermittent behavioral testing continued through 33 days after surgery."}, "[2]": {"system": "rats having DREZs avulsed at T13/L1", "experiment": "von Frey allodynia test in T13/L1 DREZ avulsion rat model, intrathecal ibudilast (Example 2)", "format": "in vivo", "conditions": "intrathecally daily in corn oil carrier; unilateral (FIG. 2) or bilateral (FIG. 3) DREZ avulsion; vs sham controls receiving corn oil", "description": "Rats were anesthetized using isoflurane. Under aseptic condition, the skin was incised in the midline along the posterior thoracolumbar region. The paravertebral muscles were retracted laterally to expose the posterior aspect of the spinal laminae. Laminectomies were performed and the dura mater then incised along the midline to expose the dorsal rootlets 10 of T13 and L1. The dorsal rootlets of T13 and L1 were then avulsed out of the spinal cord 15 on the left side using micronstrumentation 5 (see FIG. 4B). A visual defect 25 in pia and dorsal cord where the rootlets 10 were avulsed can be seen in FIG. 4B. The grey matter 30 of the spinal cord 15 is also shown. Hemostasis was obtained and a layer of gelfoam placed over the dura. The wound was closed in layers. Perioperative antibiotics were administered in prophylaxis against infection. Subject rats were tested for allodynia of the hindpaws with the von Frey hair test, beginning day one post surgery and continuing daily over the subsequent four weeks. Rat animal model was generated similar to above. In one experiment, DREZ avulsion was unilateral (FIG. 2). In one experiment, DREZ avulsion was bilateral (FIG. 3). Ibudilast was delivered intrathecally daily in a corn oil carrier, with sham controls receiving only the corn oil."}}, "note": "“Also recorded” adds a separate entry of the source."}
{"smiles": "CC(C)C(=O)c1c(C(C)C)nn2ccccc12", "note": "[AV411, 2-methyl-1-(2-propan-2-ylpyrazolo[1,5-a]pyridin-3-yl)propan-1-one]", "values": [{"measurement": "difference between the 5 mg and 10 mg dose", "setting": "[1]; allodynia reversal, daily s.c.", "value": "not differences"}, {"measurement": "reversal of behavior continues until", "setting": "[1]; days after surgery, daily s.c. treatment through day 33", "value": 33, "unit": "days"}, {"measurement": "effect on allodynia induced by avulsion (von Frey response thresholds)", "setting": "[1]; once daily s.c. 5-mg/kg or 10-mg/kg from Day 12 post-surgery through day 33, vs corn oil vehicle", "value": "reversed allodynia; also recorded: reverses bilateral allodynia"}, {"measurement": "effect of administering AV411 on hind paw mechanical allodynia as printed", "setting": "[1]; unilateral T13/L1 dorsal root avulsion, lasting upwards of 1.5 months", "value": "induces bilateral mechanical allodynia"}, {"measurement": "effect on allodynia in the model", "setting": "[2]", "value": "decreases allodynia"}]}
